Results as given in patent publication EP4656642A1, “ESTROGEN RECEPTOR PROTEOLYSIS TARGETING CHIMERA COMPOUND AND USE THEREOF” (GAN & LEE PHARM CO., LTD, priority 2023, dated 2024).

Tests used:
Format in all cases: cell-based
T-47D cells = assay: Inhibition of cell proliferation in T-47D cells (CCK-8, 6 days); details: 6 days of treatment, Table 3
Method in brief: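 T-47D cells at 3,000 cells/well in RPMI 1640 with 10% FBS were exposed to a concentration series of PROTAC compounds for 6 days at 37 °C, 5% CO2. Viability was read by CCK-8, and IC50 values were derived for proliferation inhibition.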

MCF-7 cells = assay: Inhibition of cell proliferation of MCF-7 cells (CCK-8, 9 days); details: treated for 9 days, CCK-8 kit (Table 6)
Method in brief: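 MCF-7 cells seeded at 800 cells/well in DMEM with 10% FBS, exposed to a range of compound concentrations for 9 days at 37°C, 5% CO2. Viability read by CCK-8; IC50 derived for proliferation inhibition.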

ERα [1] = biological target: T1, ERα (Homo sapiens, UniProt P03372); assay: Degradation of ERα in MCF-7 cells (immunoblotting, 4 h)
T1 sequence (P03372 1-595): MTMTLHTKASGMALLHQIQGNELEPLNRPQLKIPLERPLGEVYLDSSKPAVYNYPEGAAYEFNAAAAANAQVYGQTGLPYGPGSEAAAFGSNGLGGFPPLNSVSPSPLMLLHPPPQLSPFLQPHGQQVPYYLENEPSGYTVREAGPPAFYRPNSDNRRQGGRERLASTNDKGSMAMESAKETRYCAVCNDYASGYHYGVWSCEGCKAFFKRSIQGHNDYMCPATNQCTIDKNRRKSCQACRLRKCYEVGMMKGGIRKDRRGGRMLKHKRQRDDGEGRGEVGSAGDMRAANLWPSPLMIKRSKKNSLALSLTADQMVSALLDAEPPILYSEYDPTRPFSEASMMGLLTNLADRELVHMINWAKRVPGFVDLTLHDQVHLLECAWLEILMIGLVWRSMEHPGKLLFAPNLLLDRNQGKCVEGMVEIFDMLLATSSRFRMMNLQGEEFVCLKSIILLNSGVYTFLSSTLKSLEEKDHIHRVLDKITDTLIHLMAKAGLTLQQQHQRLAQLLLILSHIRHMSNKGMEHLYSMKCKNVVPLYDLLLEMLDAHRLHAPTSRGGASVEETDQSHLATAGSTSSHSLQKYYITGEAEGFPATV
Method in brief: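 MCF-7 cells treated 4 h at 37°C with compounds at 0.15-1000nM final. ERα in lysates measured by immunoblot, with band grayscale normalized to an internal reference protein. Degradation rate calculated against DMSO-treated control.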

ERα [2] = biological target: T1, ERα; assay: Degradation of ERα in T-47D cells (immunoblotting, 4 h); design: host or cells: T-47D
Method in brief: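 T-47D cells were treated with compound (final 0.15-1000 nM, DMSO) for 4 h at 37°C, 5% CO2. Cells were lysed in RIPA buffer with protease inhibitor, and ERα protein in the cleared lysate was measured by immunoblotting.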

Row | SMILES | IC50 (T-47D cells) | IC50 (MCF-7 cells) | Degradation rate (%) of ERα in MCF-7 cells (ERα [1]; 1nM compound) | Degradation rate (%) of ERα in MCF-7 cells (ERα [1]; 10nM compound) | Degradation rate (%) of ERα in T-47D cells (ERα [2]; 1nM compound) | Degradation rate (%) of ERα in T-47D cells (ERα [2]; 10nM compound)
1 | O=C1CCC(N2Cc3cc4c(cc3C2=O)OC2(CC4)CN(C3CCN(C(=O)c4ccc([C@@H]5c6ccc(O)cc6CC[C@@H]5c5ccccc5)cc4)CC3)C2)C(=O)N1 (stereo partly drawn) [H11] | 124 nM | 24100 nM | -39% | -41% | -16% | 8%
2 | O=C1CCC(N2Cc3c(ccc4c3OCC43CCN(CC4CCN(c5ccc([C@@H]6c7ccc(O)cc7CC[C@@H]6c6ccccc6)cc5)CC4)CC3)C2=O)C(=O)N1 (stereo partly drawn) [H8] | 31.9 nM | 27200 nM | -23% | -48% | -20% | -37%
3 | O=C1CCC(N2Cc3c(ccc4c3OCC43CCN(C4CCN(C5CCN(c6ccc([C@@H]7c8ccc(O)cc8CC[C@@H]7c7ccccc7)cc6)CC5)CC4)CC3)C2=O)C(=O)N1 (stereo partly drawn) [A54] | 6.16 nM | < 0.256 nM | 40% | 65% | 15% | 62%
4 | O=C1CCC(N2C(=O)c3cc4c(cc3C2=O)C2(CCN(CC3CCC5(CC3)CCN(c3ccc([C@@H]6c7ccc(O)cc7CC[C@@H]6c6ccccc6)cc3)CC5)CC2)CO4)C(=O)N1 (stereo partly drawn) [A36] | 21 nM | 270 nM | 11% | -14% | 2% | -23%
5 | CN(C(=O)CN1CCC2(CC1)COc1c2ccc2c1C(=O)N(C1CCC(=O)NC1=O)C2=O)C1CCC2(CC1)CCN(c1ccc([C@@H]3c4ccc(O)cc4CC[C@@H]3c3ccccc3)cc1)CC2 (stereo partly drawn) [C15] | 9.07 nM | 406 nM | 18% | 45% | 41% | 71%
6 | O=C1CCC(N2C(=O)c3cc4c(cc3C2=O)C2(CCN(C3CC5(CCN(c6ccc([C@@H]7c8ccc(O)cc8CC[C@@H]7c7ccccc7)cc6)CC5)C3)CC2)CO4)C(=O)N1 (stereo partly drawn) [A34] | 68 nM | 174 nM | 4% | 13% | 5% | 28%
7 | O=C1CCC(N2Cc3cc4c(cc3C2=O)OC2(CC4)CN(C3CCC4(CC3)CN(c3ccc([C@@H]5c6ccc(O)cc6CC[C@@H]5c5ccccc5)cc3)C4)C2)C(=O)N1 (stereo partly drawn) [B9] | 7 nM | 86 nM | 0% | 17% | 16% | 45%
8 | O=C1CCC(N2C(=O)c3cc4c(cc3C2=O)OCC2(CCN(CC3CCC5(CC3)CCN(c3ccc([C@@H]6c7ccc(O)cc7CC[C@@H]6c6ccccc6)cc3)CC5)CC2)C4)C(=O)N1 (stereo partly drawn) [A42] | 60 nM | 38 nM | -49% | -36% | 41% | 30%
9 | O=C1CCC(N2Cc3cc4c(cc3C2=O)CCC2(CN(C(=O)C3CC5(CCN(c6ccc([C@@H]7c8ccc(O)cc8CC[C@@H]7c7ccccc7)cc6)CC5)C3)C2)O4)C(=O)N1 (stereo partly drawn) [A48] | 12.3 nM | 7440 nM | 4% | 11% | -37% | 23%

Stronger by IC50 (T-47D cells), values ahead:

Row | IC50 (T-47D cells) | IC50 (MCF-7 cells) | Degradation rate (%) of ERα in MCF-7 cells (ERα [1]; 1nM compound) | Degradation rate (%) of ERα in MCF-7 cells (ERα [1]; 10nM compound) | Degradation rate (%) of ERα in T-47D cells (ERα [2]; 1nM compound) | Degradation rate (%) of ERα in T-47D cells (ERα [2]; 10nM compound) | SMILES
10 | 1.03 nM | 21700 nM | 55% | 55% | 54% | 68% | C[C@H]1CN(c2ccc([C@@H]3c4ccc(O)cc4CC[C@@H]3c3ccccc3)cc2)CCN1C[C@H]1CC[C@H](C(=O)N2CCC3(CC2)COc2c3ccc3c2CN(C2CCC(=O)NC2=O)C3=O)CC1 (stereo partly drawn) [B36]
11 | 1.33 nM | 10.9 nM | 42% | 65% | 30% | 77% | O=C1CCC(N2Cc3c(ccc4c3OCC43CCN(C4CCN(C5CCN(c6ccc([C@@H]7c8ccc(O)cc8CC[C@@H]7c7ccccc7)cc6)CC5)CC4F)CC3)C2=O)C(=O)N1 (stereo partly drawn) [H34]
12 | 2.07 nM | 4.19 nM | 35% | 77% | 51% | 82% | O=C1CCC(N2Cc3c(ccc4c3OCC43CCN(C4CCN(C5CC6(CCN(c7ccc([C@@H]8c9ccc(O)cc9CC[C@@H]8c8ccccc8)cc7)CC6)C5)[C@@H](C(=O)N5CCC(F)(F)CC5)C4)CC3)C2=O)C(=O)N1 (stereo partly drawn) [A99]
13 | 5 nM | 130 nM | 23% | 44% | 25% | 54% | O=C1CCC(N2Cc3ccc4c(c3C2=O)OCC2(CCN(C3CCC5(CC3)CCN(c3ccc([C@@H]6c7ccc(O)cc7CC[C@@H]6c6ccccc6)cc3)CC5)CC2)C4)C(=O)N1 (stereo partly drawn) [L3]
14 | 1.8 nM | 151 nM | 27% | 21% | 39% | 55% | O=C1CCC(N2Cc3c(ccc4c3OCC43CCN(CC(=O)N4CCC5(CCN(c6ccc([C@@H]7c8ccc(O)cc8CC[C@@H]7c7ccccc7)cc6)C5)C4)CC3)C2=O)C(=O)N1 (stereo partly drawn) [H19]
15 | 1.68 nM | 31.1 nM | 42% | 63% | 49% | 81% | O=C1CCC(N2Cc3c(ccc4c3OCC43CCN(C4CCN(C(=O)C5CCN(c6ccc([C@@H]7c8ccc(O)cc8CC[C@@H]7c7ccccc7)cc6)CC5)[C@@H](C(=O)N5CCC(F)(F)C5)C4)CC3)C2=O)C(=O)N1 (stereo partly drawn) [C2]
16 | 1.04 nM | 5.67 nM | 57% | 78% | 61% | 86% | CC1CN(C(=O)C2CCN(c3ccc(C4c5ccc(O)cc5CCC4c4ccccc4)cc3)CC2)CCC1N1CCC2(CC1)COc1c2ccc2c1CN(C1CCC(=O)NC1=O)C2=O (stereo not drawn) [K23]
17 | 4 nM | 5 nM | 37% | 60% | 14% | 69% | O=C1CCC(N2Cc3c(ccc4c3OCC43CCN(C4CCC5(CC4)CN(c4ccc([C@@H]6c7ccc(O)cc7CC[C@@H]6c6ccccc6)cc4)C5)CC3)C2=O)C(=O)N1 (stereo partly drawn) [L11]
18 | 3.49 nM | 22000 nM | 33% | 66% | 49% | 80% | C[C@@H]1Cc2c(ccc3[nH]ncc23)C(c2ccc(N3CCC4(CCN(C(=O)CN5CCC6(CC5)COc5c6ccc6c5CN(C5CCC(=O)NC5=O)C6=O)CC4)CC3)cn2)N1CC(F)(F)F (stereo partly drawn) [J15]
19 | 1.15 nM | 8.05 nM | 18% | 49% | 50% | 72% | O=C1CCC(N2Cc3c(ccc4c3OCC43CCN(C4CCN(C(=O)C5CCN(c6ccc([C@@H]7c8ccc(O)cc8CC[C@@H]7c7ccccc7)cc6)CC5)[C@@H](C(=O)N5CCC(F)(F)CC5)C4)CC3)C2=O)C(=O)N1 (stereo partly drawn) [C1]
20 | 1.17 nM | 67 nM | 38% | 75% | 54% | 85% | O=C1CCC(N2Cc3c(ccc4c3OCC43CCN(C4CCN(C(=O)C5CCN(c6ccc([C@@H]7c8ccc(O)cc8CC[C@@H]7c7ccccc7)cc6)CC5)[C@@H](C(=O)N5CC(F)(F)C5)C4)CC3)C2=O)C(=O)N1 (stereo partly drawn) [C4]
